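Cells were grown in 96-well plates and exposed to each compound for 48 hours at five concentrations; endpoints were interpolated linearly between bracketing concentrations, or set to the highest concentration if not reached. At the GI50, growth is halved.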 The source made the active and inactive calls. Rule as the data show it: active = GI50 up to about 1.1 µM and inactive = higher.
Tests used:
Test in all cases: DTP human tumour cell line panel, 48 h
HCT-15 = system: HCT-15
Malme-3M = system: Malme-3M
NCI-H23 = system: NCI-H23
RXF 393 = system: RXF 393
SK-MEL-28 = system: SK-MEL-28
SK-MEL-2 = system: SK-MEL-2
SK-MEL-5 = system: SK-MEL-5
SN12C = system: SN12C
SNB-19 = system: SNB-19
SW-620 = system: SW-620
U-251 = system: U-251
UACC-257 = system: UACC-257
UO-31 = system: UO-31
A498 = system: A498
HCC 2998 = system: HCC 2998
KM12 = system: KM12
NCI-H226 = system: NCI-H226
OVCAR-5 = system: OVCAR-5

Structure (SMILES)	GI50 (HCT-15) [µM]	GI50 (Malme-3M)	GI50 (NCI-H23)	GI50 (RXF 393)	GI50 (SK-MEL-28)	GI50 (SK-MEL-2)	GI50 (SK-MEL-5)	GI50 (SN12C)	GI50 (SNB-19)	GI50 (SW-620)	GI50 (U-251)	GI50 (UACC-257)	GI50 (UO-31)	GI50 (A498)	GI50 (HCC 2998)	GI50 (KM12)	GI50 (NCI-H226)	GI50 (OVCAR-5)
COc1cc(C2C(C(=O)O)=C(COC(C)=O)Oc3cc4c(cc32)OCO4)cc(OC)c1OC(C)=O (stereo not given)	> 100	> 100 µM (inactive)	> 100 µM (inactive)	> 100 µM (inactive)	> 100 µM (inactive)	> 100 µM (inactive)	> 100 µM (inactive)	> 100 µM (inactive)	> 100 µM (inactive)	> 100 µM (inactive)	> 100 µM (inactive)	> 100 µM (inactive)	> 100 µM (inactive)					
N#CC(C#N)=Cc1ccc(C(O)P(=O)(O)O)cc1 (stereo not given)	> 100	> 100 µM (inactive)	> 100 µM (inactive)		> 100 µM (inactive)	> 100 µM (inactive)	> 100 µM (inactive)	> 100 µM (inactive)	> 100 µM (inactive)	> 100 µM (inactive)	> 100 µM (inactive)	> 100 µM (inactive)	> 100 µM (inactive)	> 100 µM (inactive)	> 100 µM (inactive)	> 100 µM (inactive)	> 100 µM (inactive)	> 100 µM (inactive)
CN(C)CCc1ccc(Cl)cc1Cl	> 100	> 100 µM (inactive)	> 100 µM (inactive)	> 100 µM (inactive)	> 100 µM (inactive)	> 100 µM (inactive)	> 100 µM (inactive)	> 100 µM (inactive)	> 100 µM (inactive)	> 100 µM (inactive)	> 100 µM (inactive)	> 100 µM (inactive)	> 100 µM (inactive)	> 100 µM (inactive)	> 100 µM (inactive)	> 100 µM (inactive)		> 100 µM (inactive)
CCCCCCCCOCC(O)COC(C)C (stereo not given)	27.4	61.7 µM (inactive)	25.7 µM (inactive)		> 100 µM (inactive)		26.2 µM (inactive)	24.2 µM (inactive)	74.6 µM (inactive)	59.8 µM (inactive)	89.3 µM (inactive)	27.9 µM (inactive)	41.3 µM (inactive)	68.9 µM (inactive)	26.6 µM (inactive)		70 µM (inactive)	> 100 µM (inactive)
CCCCCCCC(=O)OCC(COC(=O)C(C)(C)C)OC(=O)Cc1ccccc1 (stereo not given)	> 100	> 100 µM (inactive)	> 100 µM (inactive)		> 100 µM (inactive)		> 100 µM (inactive)	> 100 µM (inactive)	> 100 µM (inactive)	> 100 µM (inactive)	> 100 µM (inactive)		> 100 µM (inactive)	> 100 µM (inactive)	> 100 µM (inactive)		> 100 µM (inactive)	> 100 µM (inactive)
O=C(O)COc1ccc(O)c2c1C(=O)CCCC2=O	> 100	> 100 µM (inactive)	> 100 µM (inactive)		> 100 µM (inactive)	> 100 µM (inactive)	> 100 µM (inactive)	> 100 µM (inactive)	> 100 µM (inactive)	> 100 µM (inactive)	> 100 µM (inactive)	> 100 µM (inactive)	> 100 µM (inactive)	> 100 µM (inactive)	> 100 µM (inactive)	> 100 µM (inactive)		> 100 µM (inactive)
CCOc1ccc2c(c1)[n+]([O-])c(-c1ccccc1Cl)c(N)[n+]2[O-]		> 100 µM (inactive)	> 100 µM (inactive)	> 100 µM (inactive)	> 100 µM (inactive)	> 100 µM (inactive)	90.2 µM (inactive)	> 100 µM (inactive)	> 100 µM (inactive)	> 100 µM (inactive)	> 100 µM (inactive)	> 100 µM (inactive)	> 100 µM (inactive)	> 100 µM (inactive)		> 100 µM (inactive)	> 100 µM (inactive)	> 100 µM (inactive)
C=CCOC1CC(n2cnc3c(N)ncnc32)OC1CO (stereo not given)	> 100	> 100 µM (inactive)	> 100 µM (inactive)		> 100 µM (inactive)	> 100 µM (inactive)	> 100 µM (inactive)		> 100 µM (inactive)	> 100 µM (inactive)	> 100 µM (inactive)	> 100 µM (inactive)	> 100 µM (inactive)		> 100 µM (inactive)	> 100 µM (inactive)	> 100 µM (inactive)	> 100 µM (inactive)
COc1c2c(c3c(c1C1OC(C)[C@@H](C)O1)CC(C)(C)O3)C(=O)c1ccccc1C2=O (stereo not given in full)	43.1	64.6 µM (inactive)	48.2 µM (inactive)	28 µM (inactive)	55.3 µM (inactive)	> 100 µM (inactive)	56.8 µM (inactive)	35.6 µM (inactive)	> 100 µM (inactive)	23.9 µM (inactive)	36.6 µM (inactive)	> 100 µM (inactive)	36.7 µM (inactive)		76.2 µM (inactive)	45.7 µM (inactive)	> 100 µM (inactive)	> 100 µM (inactive)
